Results from PubChem BioAssay AID743334 (Broad Institute, 2014).
Calls of active or inactive are those of the source.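 Rule for the calls: active = curve reaches 40% rise within the top valid dose, in every run; inconclusive = runs give conflicting calls; inactive = opposite-direction activity, or every run inactive.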

Assays:
[1] = test system: C2C12 myotubes ATP, CellTiter-Glo luminescence, 48 h; experiment: ATP change in C2C12 myotubes without statin, dose response, counter-screen for statin myotoxicity suppressor project, cell-based, no simvastatin, luminescence, dry powder (AID 743334)
[2] = as above; conditions: C2C12 myotubes ATP, CellTiter-Glo luminescence, 48 h; for max activity: active compounds read high

Structure (SMILES) | AC40 [1] | max activity [2] | other results
C[C@H]1CN([C@@H](C)CO)C(=O)c2cc(NC(=O)Nc3cccc4ccccc34)ccc2O[C@H]1CN(C)Cc1ccc(C(=O)Nc2ccccc2N)cc1 | > 19.5 µM (inactive) | – | –
C[C@H]1CN([C@@H](C)CO)C(=O)c2cc(C#Cc3ccncc3)cnc2O[C@@H]1CN(C)CC1CCCC1 | > 19.5 µM (inactive) | – | –
C[C@@H]1CN([C@@H](C)CO)C(=O)c2cc(NC(=O)Nc3cccc4ccccc34)ccc2O[C@@H]1CN(C)Cc1ccc(C(=O)Nc2ccccc2N)cc1 | > 21 µM (inactive) | – | –
COc1ccc(CN(C)C[C@H]2Oc3ccc(NS(=O)(=O)c4ccc(Cl)cc4)cc3CC(=O)N([C@@H](C)CO)C[C@@H]2C)cc1 | > 19.5 µM (inactive) | – | –
C[C@H](CO)N1C[C@H](C)[C@H](CN(C)CC2CCCCC2)Oc2ccc(NC(=O)CCCCCC(=O)Nc3ccccc3N)cc2CC1=O | > 19.5 µM (inactive) | – | –
COc1ccc(S(=O)(=O)Nc2ccc3c(c2)CC(=O)N([C@H](C)CO)C[C@H](C)[C@@H](CN(C)Cc2ccc(Cl)c(Cl)c2)O3)cc1 | > 19.5 µM (inactive) | – | –
N#C[C@@H]1[C@@H](c2ccc(-c3cccc(F)c3)cc2)[C@H](CO)N1C(=O)NC1CCCC1 | > 21 µM (inactive) | – | –
N#C[C@@H]1[C@H](c2ccc(-c3cccc(F)c3)cc2)[C@H](CO)N1C(=O)NC1CCCC1 | – | -18.6% (inactive) | –
C[C@H](CO)N1C[C@H](C)[C@H](CN(C)Cc2ccc(C(=O)Nc3ccccc3N)cc2)Oc2ccc(NC(=O)Nc3ccc(F)cc3)cc2CC1=O | – | -33.9% (inactive) | –
COCC(=O)N1[C@H](C#N)[C@@H](c2ccc(-c3cccc(F)c3)cc2)[C@@H]1CO | – | 6.18% (inactive) | –
C[C@H]1CN([C@@H](C)CO)C(=O)Cc2cc(NC(=O)CCCCCC(=O)Nc3ccccc3N)ccc2O[C@H]1CN(C)Cc1ccccc1 | 18 µM (inactive) | – | –
C[C@@H]1CN([C@H](C)CO)C(=O)c2cc(NC(=O)Nc3cccc4ccccc34)ccc2O[C@@H]1CN(C)Cc1ccc(C(=O)Nc2ccccc2N)cc1 | – | 13.3% (inactive) | –
C[C@H]1CN([C@@H](C)CO)S(=O)(=O)c2ccc(C#CC3CC3)cc2O[C@H]1CN(C)C(=O)Nc1cc(F)ccc1F | – | -12.1% (inactive) | –
C[C@H](CO)N1C[C@H](C)[C@@H](CN(C)Cc2ccc(Cl)c(Cl)c2)Oc2ccc(NC(=O)C3CC3)cc2CC1=O | > 19.5 µM (inactive) | – | –
COc1ccc(S(=O)(=O)Nc2ccc3c(c2)CC(=O)N([C@H](C)CO)C[C@@H](C)[C@H](CN(C)CC2CCCCC2)O3)cc1 | – | -10.2% (inactive) | –
CC(C)=CCC/C(C)=C/CC/C(C)=C/CC/C(C)=C/CO | – | 1.13% (inactive) | –
N#C[C@H]1[C@@H](c2ccc(-c3cccc(F)c3)cc2)[C@@H](CO)N1C(=O)NC1CCCC1 | – | -0.663% (inactive) | –
CCCNC(=O)N1[C@H](C#N)[C@@H](c2ccc(C3=CCCCC3)cc2)[C@@H]1CO | – | -7.65% (inactive) | –
C[C@@H]1CN([C@H](C)CO)C(=O)c2cc(NC(=O)Cc3cn(C)c4ccccc34)ccc2O[C@@H]1CN(C)Cc1ccc(C(=O)Nc2ccccc2N)cc1 | – | -0.539% (inactive) | –
C[C@H](CO)N1C[C@H](C)[C@H](CN(C)Cc2ccc(C(=O)Nc3ccccc3N)cc2)Oc2ccc(NC(=O)Nc3cccc4ccccc34)cc2CC1=O | – | -21.1% (inactive) | –
COc1ccc(S(=O)(=O)N(C)C[C@H]2Oc3c(NC(=O)Nc4ccccc4)cccc3C(=O)N([C@H](C)CO)C[C@H]2C)cc1 | – | – | ATP level change, positive = increase ([2]; at 19.5 µM (top of the series)): 7.7% (inactive)
C[C@@H]1CN([C@@H](C)CO)C(=O)c2cc(NC(=O)Cc3cn(C)c4ccccc34)ccc2O[C@H]1CN(C)Cc1ccc(C(=O)Nc2ccccc2N)cc1 | – | -0.192% (inactive) | –
Cc1noc(C)c1S(=O)(=O)Nc1ccc2c(c1)CC(=O)N([C@H](C)CO)C[C@@H](C)[C@@H](CN(C)Cc1ccc(-c3ccccc3)cc1)O2 | – | – | ATP level change, positive = increase ([2]; at 21 µM (top of the series)): 10.4% (inactive)
